What all share (assay): CYP inhibition in HLMs
Holding throughout (assay type): in vitro ADME

The target of one test is T1, CYP2C8 (Homo sapiens, UniProt P10632).
T1 construct: from tissue; host or cells: human liver microsomes
T1 sequence (P10632 1-490): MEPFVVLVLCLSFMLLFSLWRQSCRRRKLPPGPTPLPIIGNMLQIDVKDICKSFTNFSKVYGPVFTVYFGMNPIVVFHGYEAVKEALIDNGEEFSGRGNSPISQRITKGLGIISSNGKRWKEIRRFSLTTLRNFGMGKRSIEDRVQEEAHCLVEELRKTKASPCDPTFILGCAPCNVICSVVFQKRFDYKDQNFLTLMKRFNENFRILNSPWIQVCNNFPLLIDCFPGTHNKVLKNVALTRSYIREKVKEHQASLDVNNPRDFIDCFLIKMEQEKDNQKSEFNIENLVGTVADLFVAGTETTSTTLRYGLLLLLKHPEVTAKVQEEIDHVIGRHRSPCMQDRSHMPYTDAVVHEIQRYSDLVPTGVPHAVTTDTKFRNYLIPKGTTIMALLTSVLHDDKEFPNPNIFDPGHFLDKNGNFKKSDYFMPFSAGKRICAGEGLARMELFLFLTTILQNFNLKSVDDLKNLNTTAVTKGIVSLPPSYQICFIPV
The settings on record: HLM 0.025 mg/mL, probe amodiaquine, 10 min. How it is done: (§1) CYP inhibition potential of Deg-AZM was assessed in NADPH-fortified HLMs (0.5 mg/mL for CYP1A2, CYP2B6, CYP2C19 and CYP2D6 system, 0.035 mg/mL for CYP2C9 system, 0.05 mg/mL for CYP3A4 system, and 0.025 mg/mL for CYP2C8 system) using CYP probe substrates (same as the positive controls in HLM phenotyping assays). Deg-AZM in triplicates (0, 0.2, 0.6, 2.0, 6.0, 20, and 60 μM) was treated with each probe of CYP1A2 (20 min), CYP2B6 (20 min), CYP2C8 (10 min), CYP2C9 (60 min), CYP2C19 (45 min), CYP2D6 (30 min) and CYP3A4 (15 min). Probe substrate metabolites were analyzed by LC-MS/MS and the peak area ratios of analytes to internal standard (Indapamide) were calculated. The activity of the CYP450 enzyme subtype is directly proportional to the concentration of the corresponding probe substrate metabolites. The average of the measured values of each group was calculated, the control tube value was set as 100%, the residual probe substrate metabolites was calculated in the presence of positive inhibitors and Deg-AZM at series concentration. IC50 values were calculated by the dose-response model (nonlinear regression) in GraphPad Prism software.

The next test addresses T2, CYP2B6 (Homo sapiens, UniProt P20813).
T2 construct: from tissue; host or cells: human liver microsomes
T2 sequence (P20813 1-491): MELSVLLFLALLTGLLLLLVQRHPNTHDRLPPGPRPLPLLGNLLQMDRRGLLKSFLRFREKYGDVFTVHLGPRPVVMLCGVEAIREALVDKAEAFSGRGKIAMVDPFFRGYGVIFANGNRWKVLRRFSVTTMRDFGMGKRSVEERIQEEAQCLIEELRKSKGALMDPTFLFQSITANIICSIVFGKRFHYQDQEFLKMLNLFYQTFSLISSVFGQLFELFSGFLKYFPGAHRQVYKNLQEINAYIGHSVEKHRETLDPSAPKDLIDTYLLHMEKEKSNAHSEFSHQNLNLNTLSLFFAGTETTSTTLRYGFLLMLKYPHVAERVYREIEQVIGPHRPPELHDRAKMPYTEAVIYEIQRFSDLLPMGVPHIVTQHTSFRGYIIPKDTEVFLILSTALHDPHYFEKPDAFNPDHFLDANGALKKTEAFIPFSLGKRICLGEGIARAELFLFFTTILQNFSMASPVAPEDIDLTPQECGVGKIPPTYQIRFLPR
The settings on record: HLM 0.5 mg/mL, probe bupropion, 20 min. Here is the method:
as §1

Another test addresses T3, CYP3A4 (Homo sapiens, UniProt P08684).
T3 construct: from tissue; host or cells: human liver microsomes
Particulars: HLM 0.05 mg/mL, probe midazolam, 15 min. Here is the method:
as §1

Another test concerns the target T4, CYP1A2 (Homo sapiens, UniProt P05177).
T4 construct: from tissue; host or cells: human liver microsomes
T4 sequence (P05177 1-516): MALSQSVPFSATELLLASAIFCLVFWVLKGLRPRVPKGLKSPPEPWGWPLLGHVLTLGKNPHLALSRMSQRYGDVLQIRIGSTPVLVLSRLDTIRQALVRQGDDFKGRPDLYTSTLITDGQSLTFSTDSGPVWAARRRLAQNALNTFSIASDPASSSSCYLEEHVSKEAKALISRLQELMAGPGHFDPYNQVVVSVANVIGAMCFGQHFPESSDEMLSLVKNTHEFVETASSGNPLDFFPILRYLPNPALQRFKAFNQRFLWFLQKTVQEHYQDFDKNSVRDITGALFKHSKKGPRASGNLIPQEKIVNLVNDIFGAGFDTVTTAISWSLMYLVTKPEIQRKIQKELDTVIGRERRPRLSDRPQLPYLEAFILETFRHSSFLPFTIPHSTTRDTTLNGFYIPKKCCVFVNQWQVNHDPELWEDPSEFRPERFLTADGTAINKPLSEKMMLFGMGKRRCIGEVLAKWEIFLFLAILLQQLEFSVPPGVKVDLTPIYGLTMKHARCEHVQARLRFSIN
The settings on record: HLM 0.5 mg/mL, probe phenacetin, 20 min. How it is done:
as §1

In the next test the target is T5, CYP2D6 (Homo sapiens, UniProt P10635).
T5 construct: from tissue; host or cells: human liver microsomes
Particulars: HLM 0.5 mg/mL, probe bufuralol, 30 min. Here is the method:
as §1

The target in the next test is T6, CYP2C19 (Homo sapiens, UniProt P33261).
T6 construct: from tissue; host or cells: human liver microsomes
Particulars: HLM 0.5 mg/mL, probe S-mephenytoin, 45 min. Here is the method:
as §1

The next test has as its target T7, CYP2C9 (Homo sapiens, UniProt P11712).
T7 construct: from tissue; host or cells: human liver microsomes
Particulars: HLM 0.035 mg/mL, probe diclofenac, 60 min. How it is done:
as §1

T3 sequence (P08684 whole entry): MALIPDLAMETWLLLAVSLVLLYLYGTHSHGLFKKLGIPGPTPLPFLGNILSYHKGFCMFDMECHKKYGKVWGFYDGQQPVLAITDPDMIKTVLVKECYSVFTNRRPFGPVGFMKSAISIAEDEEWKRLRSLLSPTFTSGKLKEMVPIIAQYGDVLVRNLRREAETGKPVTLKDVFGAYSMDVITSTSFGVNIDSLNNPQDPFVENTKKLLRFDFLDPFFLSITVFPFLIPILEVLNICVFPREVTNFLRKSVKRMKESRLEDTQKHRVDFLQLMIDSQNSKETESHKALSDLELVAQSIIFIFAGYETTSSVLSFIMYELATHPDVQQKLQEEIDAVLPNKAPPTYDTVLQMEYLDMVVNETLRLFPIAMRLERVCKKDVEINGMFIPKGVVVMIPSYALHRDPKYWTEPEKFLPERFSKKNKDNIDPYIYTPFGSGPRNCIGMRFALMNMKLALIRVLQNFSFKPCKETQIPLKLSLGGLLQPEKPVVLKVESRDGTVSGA
T7 sequence (P11712 whole entry): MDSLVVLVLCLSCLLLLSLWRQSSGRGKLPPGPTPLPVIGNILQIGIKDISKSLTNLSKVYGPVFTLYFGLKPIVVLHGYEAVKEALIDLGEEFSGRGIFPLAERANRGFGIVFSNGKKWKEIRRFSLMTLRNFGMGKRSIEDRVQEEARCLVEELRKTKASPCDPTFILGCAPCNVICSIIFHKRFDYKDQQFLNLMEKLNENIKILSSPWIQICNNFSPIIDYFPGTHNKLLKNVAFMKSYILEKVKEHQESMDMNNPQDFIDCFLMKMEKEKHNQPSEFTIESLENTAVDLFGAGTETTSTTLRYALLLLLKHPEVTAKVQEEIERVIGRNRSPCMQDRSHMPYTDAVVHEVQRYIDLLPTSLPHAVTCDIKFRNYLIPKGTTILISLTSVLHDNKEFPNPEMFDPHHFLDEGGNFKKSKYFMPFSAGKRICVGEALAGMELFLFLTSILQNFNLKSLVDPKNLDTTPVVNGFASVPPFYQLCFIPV
T6 sequence (P33261 whole entry): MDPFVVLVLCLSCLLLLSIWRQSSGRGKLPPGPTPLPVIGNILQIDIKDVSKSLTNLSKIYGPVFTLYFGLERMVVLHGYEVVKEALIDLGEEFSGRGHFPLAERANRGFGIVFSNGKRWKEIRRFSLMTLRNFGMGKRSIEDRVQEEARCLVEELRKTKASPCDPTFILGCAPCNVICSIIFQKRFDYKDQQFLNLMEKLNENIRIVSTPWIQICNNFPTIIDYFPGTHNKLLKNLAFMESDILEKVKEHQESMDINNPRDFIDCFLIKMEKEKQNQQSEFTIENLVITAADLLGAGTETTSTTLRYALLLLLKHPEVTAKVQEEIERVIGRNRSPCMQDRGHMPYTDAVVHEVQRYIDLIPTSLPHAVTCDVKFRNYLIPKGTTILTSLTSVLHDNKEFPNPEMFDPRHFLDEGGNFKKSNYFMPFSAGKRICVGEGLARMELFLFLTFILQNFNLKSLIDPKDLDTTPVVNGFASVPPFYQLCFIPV
T5 sequence (P10635 whole entry): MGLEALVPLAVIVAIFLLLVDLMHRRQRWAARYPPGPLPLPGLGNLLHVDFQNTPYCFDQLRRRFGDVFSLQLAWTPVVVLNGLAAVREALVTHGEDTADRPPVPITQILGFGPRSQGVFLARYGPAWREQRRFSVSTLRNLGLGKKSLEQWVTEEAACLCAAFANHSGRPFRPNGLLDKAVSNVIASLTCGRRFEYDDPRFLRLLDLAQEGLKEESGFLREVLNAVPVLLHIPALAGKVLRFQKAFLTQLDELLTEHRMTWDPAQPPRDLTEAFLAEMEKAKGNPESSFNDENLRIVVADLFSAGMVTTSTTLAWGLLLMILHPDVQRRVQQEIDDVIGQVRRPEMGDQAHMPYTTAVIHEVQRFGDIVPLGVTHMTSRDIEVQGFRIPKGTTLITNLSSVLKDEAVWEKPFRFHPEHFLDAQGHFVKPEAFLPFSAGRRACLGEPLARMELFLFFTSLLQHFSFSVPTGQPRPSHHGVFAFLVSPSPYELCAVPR

Turning to `CCC1OC(=O)C(C)C(O)C(C)C(O)C(C)(O)CC(C)CN(C)C(C)C(O)C1(C)O` (stereo not shown) [Deg-AZM, Deglycosylated azithromycin], the IC50 was above 60 µM against CYP2C8; 8.97 µM against CYP2B6; above 60 µM against CYP3A4; above 60 µM on CYP1A2; 7.89 µM against CYP2D6; above 60 µM against CYP2C19. The same compound had an IC50 at CYP2C9 above 60 µM.

The values above are taken from PMC11750672, “The in vivo metabolic pathway of Deg-AZM and in vitro investigations into the contribution of drug metabolizing enzymes and drug transporters in the drug interactions of Deg-AZM, a clinical-stage new transgelin agonist” (Frontiers in Pharmacology, 2025).
